Experimental data as given in ChEMBL document CHEMBL1141867, “A small library of trisubstituted pyrimidines as antimalarial and antitubercular agents” (2005).
≈ marks a conversion by molar mass, not a printed value.

Experiments:
Plasmodium falciparum = test: Antimalarial activity against Plasmodium falciparum NF54; type: functional; conditions: NF-54
[1] = system: Mycobacterium tuberculosis; test: Antitubercular activity against Mycobacterium tuberculosis H37Ra; type: functional

SMILES	MIC (Plasmodium falciparum) [µg/mL]	MIC [1] [µg/mL]
Oc1ccc(-c2cc(-c3ccccc3)nc(NCCCN3CCOCC3)n2)cc1	2 (≈ 5.12 µM)	12.5 (≈ 32 µM)
Oc1ccc(-c2cc(-c3ccccc3)nc(N3CCOCC3)n2)cc1	2 (≈ 6 µM)	
COc1ccc(OC)c(-c2cc(-c3ccc(O)cc3)nc(NCCCn3ccnc3)n2)c1	0.25 (≈ 0.579 µM)	12.5 (≈ 29 µM)
CCN(CC)CCCC(C)Nc1nc(-c2ccc(O)cc2)cc(-c2ccc(OC)cc2)n1 (configuration not stated)	10 (≈ 23 µM)	12.5 (≈ 28.8 µM)
COc1ccc(OC)c(-c2cc(-c3ccc(O)cc3)nc(NCCCN3CCOCC3)n2)c1	0.5 (≈ 1.11 µM)	25 (≈ 55.5 µM)
COc1ccc(-c2cc(-c3ccc(O)cc3)nc(N3CCOCC3)n2)cc1OC	0.5 (≈ 1.27 µM)	
CCN(CC)CCCC(C)Nc1nc(-c2ccc(C)cc2)cc(-c2ccc(O)cc2)n1 (configuration not stated)	50 (≈ 119 µM)	
COc1ccc(-c2cc(-c3ccc(O)cc3)nc(NCCCn3ccnc3)n2)cc1OC	0.25 (≈ 0.579 µM)	12.5 (≈ 29 µM)
COc1ccc(OC)c(-c2cc(-c3ccc(O)cc3)nc(N3CCOCC3)n2)c1	0.5 (≈ 1.27 µM)	
Oc1ccc(-c2cc(-c3ccccc3)nc(NCCCn3ccnc3)n2)cc1	0.5 (≈ 1.35 µM)	25 (≈ 67.3 µM)
Cc1ccc(-c2cc(-c3ccc(O)cc3)nc(N3CCOCC3)n2)cc1	2 (≈ 5.76 µM)	
COc1ccc(-c2cc(-c3ccc(O)cc3)nc(NCCCN3CCOCC3)n2)cc1OC	0.5 (≈ 1.11 µM)	25 (≈ 55.5 µM)
CCN(CC)CCCC(C)Nc1nc(-c2ccc(O)cc2)cc(-c2cc(OC)ccc2OC)n1 (configuration not stated)	10 (≈ 21.5 µM)	12.5 (≈ 26.9 µM)
Cc1ccc(-c2cc(-c3ccc(O)cc3)nc(NCCCN3CCOCC3)n2)cc1	2 (≈ 4.94 µM)	
Cc1ccc(-c2cc(-c3ccc(O)cc3)nc(NCCCn3ccnc3)n2)cc1	2 (≈ 5.19 µM)	
COc1ccc(-c2cc(-c3ccc(O)cc3)nc(N3CCOCC3)n2)cc1	1 (≈ 2.75 µM)	
COc1ccc(-c2cc(-c3ccc(O)cc3)nc(NCCCn3ccnc3)n2)cc1	1 (≈ 2.49 µM)	12.5 (≈ 31.1 µM)
COc1ccc(-c2cc(-c3ccc(O)cc3)nc(NCCCN3CCOCC3)n2)cc1	1 (≈ 2.38 µM)	12.5 (≈ 29.7 µM)
CCN(CC)CCCC(C)Nc1nc(-c2ccccc2)cc(-c2ccc(O)cc2)n1 (configuration not stated)	10 (≈ 24.7 µM)	25 (≈ 61.8 µM)
CCN(CC)CCCC(C)Nc1nc(-c2ccc(O)cc2)cc(-c2ccc(OC)c(OC)c2)n1 (configuration not stated)	2 (≈ 4.3 µM)	12.5 (≈ 26.9 µM)
